# From ChEMBL document CHEMBL2363022, “Malaria Box Schistosomiasis Screening Data” (2013)
# How the values were obtained:
# Schistosoma mansoni [1] = experiment: (§1) MMV: Motility assay. Percent change (relative to DMSO controls) @ 5 uM of movement of 4-5 Schistosoma mansoni adult males after 48 h as measured by the Consensus Voting Luminance Difference algorithm available on WormAssay (PMID:22303493). Occasional incongruence ocurrs between the motility scores and the visually adjudicated 'toxicity scores'. In these cases the 'toxicity score' should be prioritized. Only those Malaria box 'Drug-like' cpds yielding the most severe phenotypes vs. somules were tested. Caffrey group UCSF.; format: functional
# Schistosoma mansoni [2] = format: functional; parameters: scale not given here
# Schistosoma mansoni [3] = format: functional; parameters: scale not given here; remark: listed apart in the source
# Schistosoma mansoni [4] = experiment: as §1, with “72” for “48”; format: functional
# Schistosoma mansoni [5] = format: functional; parameters: scale not given here; remark: listed apart in the source
# Schistosoma mansoni [6] = experiment: MMV: Toxicity @ 5 uM to 4-5 Schistosoma mansoni adult males after 48 h on a scale of 0 (none) - 4 (most). Includes short descriptors of effects as judged visually (PMID:19597541). Only those Malaria box 'drug-like' cpds yielding the most severe phenotypes vs. somules were tested. Caffrey group UCSF.; format: functional
# Schistosoma mansoni [7] = experiment: MMV: Toxicity @ 5 uM to 4-5 Schistosoma mansoni adult males after 72 h on a scale of 0 (none) - 4 (most). Includes short descriptors of effects as judged visually (PMID:19597541). Only those Malaria box 'drug-like' cpds yielding the most severe phenotypes vs. somules were tested. Caffrey group UCSF.; format: functional
# Schistosoma mansoni [8] = experiment: MMV: Toxicity @ 5 uM to 4-5 Schistosoma mansoni adult males after 24 h on a scale of 0 (none) - 4 (most). Includes short descriptors of effects as judged visually (PMID:19597541). Only those Malaria box 'drug-like' cpds yielding the most severe phenotypes vs. somules were tested. Caffrey group UCSF.; format: functional
# Schistosoma mansoni [9] = experiment: as §1, with “24” for “48”; format: functional
# Schistosoma mansoni [10] = system: Schistosoma mansoni
smiles,measurement,setting,value
COc1ccc2nc(C)cc(Nc3ccc(Cl)cc3)c2c1,Motility,Schistosoma mansoni [1],87.4
same,Toxicity,Schistosoma mansoni [2],4
same,Toxicity,Schistosoma mansoni [3],3
same,Motility,Schistosoma mansoni [4],"Slow, on sides, dark"
same,Toxicity,Schistosoma mansoni [5],4
same,Toxicity,Schistosoma mansoni [6],2
same,Toxicity,Schistosoma mansoni [7],3
same,Toxicity,Schistosoma mansoni [8],2
same,Motility,Schistosoma mansoni [9],75.2
Cl.N=c1n(CCN2CCCCC2)c2ccccc2n1CC(O)c1cccc(Br)c1 (stereo unspecified),Motility,Schistosoma mansoni [1],74.8
same,Toxicity,Schistosoma mansoni [2],4
same,Toxicity,Schistosoma mansoni [3],2
same,Motility,Schistosoma mansoni [4],114.5
same,Toxicity,Schistosoma mansoni [5],2
same,Toxicity,Schistosoma mansoni [6],0
same,Toxicity,Schistosoma mansoni [7],0
same,Toxicity,Schistosoma mansoni [8],0
same,Motility,Schistosoma mansoni [9],92.2
CC1CCN(Cc2ccc(NC(=O)c3cc4ccc5cccnc5c4[nH]3)cc2)CC1,Motility,Schistosoma mansoni [1],97.2
same,Toxicity,Schistosoma mansoni [2],4
same,Toxicity,Schistosoma mansoni [3],0
same,Motility,Schistosoma mansoni [4],110
same,Toxicity,Schistosoma mansoni [5],4
same,Toxicity,Schistosoma mansoni [6],0
same,Toxicity,Schistosoma mansoni [7],0
same,Toxicity,Schistosoma mansoni [8],0
same,Motility,Schistosoma mansoni [9],138
O=C(O)C(=O)O.Oc1ccc(Br)cc1CN1CCN(Cc2cccc(F)c2)CC1,Motility,Schistosoma mansoni [1],202.5
same,Toxicity,Schistosoma mansoni [2],1
same,Toxicity,Schistosoma mansoni [3],1
same,Motility,Schistosoma mansoni [4],Overactive
same,Toxicity,Schistosoma mansoni [5],1
same,Toxicity,Schistosoma mansoni [6],1
same,Toxicity,Schistosoma mansoni [7],1
same,Toxicity,Schistosoma mansoni [8],1
same,Motility,Schistosoma mansoni [9],233
CC(C)(C)c1ccc(C(=O)Nc2nc3ccccc3s2)cc1,Motility,Schistosoma mansoni [1],113.8
same,Toxicity,Schistosoma mansoni [2],0
same,Toxicity,Schistosoma mansoni [3],2
same,Motility,Schistosoma mansoni [4],118
same,Toxicity,Schistosoma mansoni [5],0
same,Toxicity,Schistosoma mansoni [6],0
same,Toxicity,Schistosoma mansoni [7],0
same,Toxicity,Schistosoma mansoni [8],0
same,Motility,Schistosoma mansoni [9],58.5
CNCCCNc1ccnc2cc(Cl)ccc12,Motility,Schistosoma mansoni [1],116.2
same,Toxicity,Schistosoma mansoni [2],2
same,Toxicity,Schistosoma mansoni [3],2
same,Motility,Schistosoma mansoni [4],No effect
same,Toxicity,Schistosoma mansoni [5],2
same,Toxicity,Schistosoma mansoni [6],0
same,Toxicity,Schistosoma mansoni [7],0
same,Toxicity,Schistosoma mansoni [8],0
same,Motility,Schistosoma mansoni [9],113.2
CCOc1cc(Cl)c(C(C)NC(=O)c2cccc(OC)c2)cc1OCC (stereo unspecified),Toxicity,Schistosoma mansoni [2],2
same,Toxicity,Schistosoma mansoni [3],1
same,Toxicity,Schistosoma mansoni [10],No effect
CCn1nc(-c2ccc(C(=O)OC)cc2)nc2c(=O)n(C)c(=O)nc1-2,Motility,Schistosoma mansoni [1],97
same,Toxicity,Schistosoma mansoni [2],4
same,Toxicity,Schistosoma mansoni [3],4
same,Motility,Schistosoma mansoni [4],78.5
same,Toxicity,Schistosoma mansoni [5],4
same,Toxicity,Schistosoma mansoni [6],0
same,Toxicity,Schistosoma mansoni [7],0
same,Toxicity,Schistosoma mansoni [8],0
same,Motility,Schistosoma mansoni [9],99.1
Cc1cccc(-n2ncc3c(O)nc(-n4nc(C)cc4NC(=O)c4cc5ccccc5o4)nc32)c1,Motility,Schistosoma mansoni [1],1
same,Toxicity,Schistosoma mansoni [2],4
same,Toxicity,Schistosoma mansoni [3],1
same,Motility,Schistosoma mansoni [4],"Slow, on sides, dark, tegument damage"
same,Toxicity,Schistosoma mansoni [5],1
same,Toxicity,Schistosoma mansoni [6],3
same,Toxicity,Schistosoma mansoni [7],4
same,Toxicity,Schistosoma mansoni [8],0
same,Motility,Schistosoma mansoni [9],6
Clc1ccc2c(N3CCCC3)ccnc2c1,Motility,Schistosoma mansoni [1],131.1
same,Toxicity,Schistosoma mansoni [2],2
same,Toxicity,Schistosoma mansoni [3],1
same,Motility,Schistosoma mansoni [4],No effect
same,Toxicity,Schistosoma mansoni [5],0
same,Toxicity,Schistosoma mansoni [6],0
same,Toxicity,Schistosoma mansoni [7],0
same,Toxicity,Schistosoma mansoni [8],0
same,Motility,Schistosoma mansoni [9],163
Oc1ccccc1CN1CCC2(CCCN(Cc3ccccc3F)C2)C1 (stereo unspecified),Motility,Schistosoma mansoni [1],150.6
same,Toxicity,Schistosoma mansoni [2],3
same,Toxicity,Schistosoma mansoni [3],2
same,Motility,Schistosoma mansoni [4],overactive
same,Toxicity,Schistosoma mansoni [5],3
same,Toxicity,Schistosoma mansoni [6],1
same,Toxicity,Schistosoma mansoni [7],1
same,Toxicity,Schistosoma mansoni [8],1
same,Motility,Schistosoma mansoni [9],175.4
O=C(Nc1nc(-c2ccccn2)cs1)c1ccccc1Br,Motility,Schistosoma mansoni [1],80.4
same,Toxicity,Schistosoma mansoni [2],4
same,Toxicity,Schistosoma mansoni [3],2
same,Motility,Schistosoma mansoni [4],88
same,Toxicity,Schistosoma mansoni [5],2
same,Toxicity,Schistosoma mansoni [6],0
same,Toxicity,Schistosoma mansoni [7],0
same,Toxicity,Schistosoma mansoni [8],0
same,Motility,Schistosoma mansoni [9],69.2
COc1ccc(CNC2CCN(c3ccc(NC(=O)c4cccc(Cl)c4)cc3)CC2)cc1OC,Motility,Schistosoma mansoni [1],45.4
same,Toxicity,Schistosoma mansoni [2],4
same,Toxicity,Schistosoma mansoni [3],2
same,Motility,Schistosoma mansoni [4],49
same,Toxicity,Schistosoma mansoni [5],4
same,Toxicity,Schistosoma mansoni [6],0
same,Toxicity,Schistosoma mansoni [7],0
same,Toxicity,Schistosoma mansoni [8],0
same,Motility,Schistosoma mansoni [9],104.8
Cc1cc(N2CCCC2)nc(Nc2ccc(NC(=O)CCc3ccccc3)cc2)n1,Motility,Schistosoma mansoni [1],104.8
same,Toxicity,Schistosoma mansoni [2],4
same,Toxicity,Schistosoma mansoni [3],0
same,Motility,Schistosoma mansoni [4],Slow
same,Toxicity,Schistosoma mansoni [5],4
same,Toxicity,Schistosoma mansoni [6],3
same,Toxicity,Schistosoma mansoni [7],1
same,Toxicity,Schistosoma mansoni [8],2
same,Motility,Schistosoma mansoni [9],28.9
Br.CCN(CC)S(=O)(=O)c1ccc(-c2csc(Nc3ccc(C)c(C)c3)n2)cc1,Motility,Schistosoma mansoni [1],3.9
same,Toxicity,Schistosoma mansoni [2],2
same,Toxicity,Schistosoma mansoni [3],2
same,Motility,Schistosoma mansoni [4],2.5
same,Toxicity,Schistosoma mansoni [5],2
same,Toxicity,Schistosoma mansoni [6],2
same,Toxicity,Schistosoma mansoni [7],4
same,Toxicity,Schistosoma mansoni [8],2
same,Motility,Schistosoma mansoni [9],21.8
CN(C)CCCNCc1ccc(-c2ccc(F)c(Cl)c2)o1.Cl,Motility,Schistosoma mansoni [1],62.2
same,Toxicity,Schistosoma mansoni [2],3
same,Toxicity,Schistosoma mansoni [3],2
same,Motility,Schistosoma mansoni [4],65.7
same,Toxicity,Schistosoma mansoni [5],3
same,Toxicity,Schistosoma mansoni [6],2
same,Toxicity,Schistosoma mansoni [7],2
same,Toxicity,Schistosoma mansoni [8],2
same,Motility,Schistosoma mansoni [9],26.2
COc1ccc(-c2nc3cc(Cc4ccc5[nH]c(-c6ccc(OC)cc6)nc5c4)ccc3[nH]2)cc1,Motility,Schistosoma mansoni [1],24.7
same,Toxicity,Schistosoma mansoni [2],4
same,Toxicity,Schistosoma mansoni [3],3
same,Motility,Schistosoma mansoni [4],12.4
same,Toxicity,Schistosoma mansoni [5],4
same,Toxicity,Schistosoma mansoni [6],3
same,Toxicity,Schistosoma mansoni [7],4
same,Toxicity,Schistosoma mansoni [8],3
same,Motility,Schistosoma mansoni [9],17.2
CN(C)CCNc1cc(-c2ccccc2)nc2ccccc12,Motility,Schistosoma mansoni [1],68.3
same,Toxicity,Schistosoma mansoni [2],1
same,Toxicity,Schistosoma mansoni [3],2
same,Motility,Schistosoma mansoni [4],No effect
same,Toxicity,Schistosoma mansoni [5],2
same,Toxicity,Schistosoma mansoni [6],0
same,Toxicity,Schistosoma mansoni [7],0
same,Toxicity,Schistosoma mansoni [8],1
same,Motility,Schistosoma mansoni [9],151.9
CCN(CC)CCNc1ncnc2c1[nH]c1ccc(Br)cc12,Motility,Schistosoma mansoni [1],119
same,Toxicity,Schistosoma mansoni [2],4
same,Toxicity,Schistosoma mansoni [3],4
same,Motility,Schistosoma mansoni [4],No effect
same,Toxicity,Schistosoma mansoni [5],4
same,Toxicity,Schistosoma mansoni [6],0
same,Toxicity,Schistosoma mansoni [7],0
same,Toxicity,Schistosoma mansoni [8],0
same,Motility,Schistosoma mansoni [9],No effect
O=C(Nc1cccc(C(F)(F)F)c1)c1cc(Cl)ccc1O,Motility,Schistosoma mansoni [1],0.4
same,Toxicity,Schistosoma mansoni [2],4
same,Toxicity,Schistosoma mansoni [3],4
same,Motility,Schistosoma mansoni [4],0.7
same,Toxicity,Schistosoma mansoni [5],4
same,Toxicity,Schistosoma mansoni [6],4
same,Toxicity,Schistosoma mansoni [7],4
same,Toxicity,Schistosoma mansoni [8],4
same,Motility,Schistosoma mansoni [9],0.5
COCCNCC(O)Cn1c2ccc(Cl)cc2c2cc(Cl)ccc21 (stereo unspecified),Motility,Schistosoma mansoni [1],94
same,Toxicity,Schistosoma mansoni [2],4
same,Toxicity,Schistosoma mansoni [3],4
same,Motility,Schistosoma mansoni [4],No effect
same,Toxicity,Schistosoma mansoni [5],4
same,Toxicity,Schistosoma mansoni [6],0
same,Toxicity,Schistosoma mansoni [7],0
same,Toxicity,Schistosoma mansoni [8],0
same,Motility,Schistosoma mansoni [9],94
Cc1ccc(CN2CCC(C(=O)Nc3ccc(-c4cc5ccccc5[nH]4)cc3)CC2)o1,Motility,Schistosoma mansoni [1],126.5
same,Toxicity,Schistosoma mansoni [2],4
same,Toxicity,Schistosoma mansoni [3],0
same,Motility,Schistosoma mansoni [4],No effect
same,Toxicity,Schistosoma mansoni [5],4
same,Toxicity,Schistosoma mansoni [6],0
same,Toxicity,Schistosoma mansoni [7],0
same,Toxicity,Schistosoma mansoni [8],0
same,Motility,Schistosoma mansoni [9],122.1
OC(CNC1CCCC1)Cn1c2ccccc2c2ccccc21 (stereo unspecified),Motility,Schistosoma mansoni [1],83
same,Toxicity,Schistosoma mansoni [2],4
same,Toxicity,Schistosoma mansoni [3],1
same,Motility,Schistosoma mansoni [4],No effect
same,Toxicity,Schistosoma mansoni [5],4
same,Toxicity,Schistosoma mansoni [6],0
same,Toxicity,Schistosoma mansoni [7],0
same,Toxicity,Schistosoma mansoni [8],0
same,Motility,Schistosoma mansoni [9],No effect
COc1cccc(O)c1CN1CCC2(CCCN(Cc3ccc(F)cc3)C2)C1 (stereo unspecified),Motility,Schistosoma mansoni [1],133.2
same,Toxicity,Schistosoma mansoni [2],3
same,Toxicity,Schistosoma mansoni [3],3
same,Motility,Schistosoma mansoni [4],92.4
same,Toxicity,Schistosoma mansoni [5],2
same,Toxicity,Schistosoma mansoni [6],0
same,Toxicity,Schistosoma mansoni [7],0
same,Toxicity,Schistosoma mansoni [8],0
same,Motility,Schistosoma mansoni [9],168.1
CCN(CC)CCCNc1nc(-c2ccc(Cl)cc2)nc2ccccc12,Motility,Schistosoma mansoni [1],99.5
same,Toxicity,Schistosoma mansoni [2],4
same,Toxicity,Schistosoma mansoni [3],2
same,Motility,Schistosoma mansoni [4],56
same,Toxicity,Schistosoma mansoni [5],4
same,Toxicity,Schistosoma mansoni [6],0
same,Toxicity,Schistosoma mansoni [7],0
same,Toxicity,Schistosoma mansoni [8],0
same,Motility,Schistosoma mansoni [9],86.7
O=c1nc(C=Cc2ccc(Br)cc2)oc2ccccc12,Motility,Schistosoma mansoni [1],98.7
same,Toxicity,Schistosoma mansoni [2],2
same,Toxicity,Schistosoma mansoni [3],2
same,Motility,Schistosoma mansoni [4],No effect
same,Toxicity,Schistosoma mansoni [5],2
same,Toxicity,Schistosoma mansoni [6],0
same,Toxicity,Schistosoma mansoni [7],0
same,Toxicity,Schistosoma mansoni [8],0
same,Motility,Schistosoma mansoni [9],132
Cl.OC(CNCc1ccccc1)Cn1c2ccccc2c2ccccc21 (stereo unspecified),Motility,Schistosoma mansoni [1],49.4
same,Toxicity,Schistosoma mansoni [2],4
same,Toxicity,Schistosoma mansoni [3],4
same,Motility,Schistosoma mansoni [4],No effect
same,Toxicity,Schistosoma mansoni [5],4
same,Toxicity,Schistosoma mansoni [6],0
same,Toxicity,Schistosoma mansoni [7],0
same,Toxicity,Schistosoma mansoni [8],0
same,Motility,Schistosoma mansoni [9],38.1
CC(C)=CCN1CCC(C(=O)Nc2ccc(-c3nc4ccccc4[nH]3)cc2)CC1,Motility,Schistosoma mansoni [1],93.7
same,Toxicity,Schistosoma mansoni [2],1
same,Toxicity,Schistosoma mansoni [3],1
same,Motility,Schistosoma mansoni [4],119
same,Toxicity,Schistosoma mansoni [5],1
same,Toxicity,Schistosoma mansoni [6],0
same,Toxicity,Schistosoma mansoni [7],0
same,Toxicity,Schistosoma mansoni [8],0
same,Motility,Schistosoma mansoni [9],139.1
